Assay results as given in PubChem BioAssay AID624462 (National Center for Advancing Translational Sciences (NCATS), 2012).
Converted amounts (≈) assume the structure as drawn.

Test system: PBS pH 7.4 kinetic solubility, LC-UV/MS
Test: qHTS for Inhibitors of mutant isocitrate dehydrogenase 1 (IDH1): Aqueous Kinetic Solubility
Conditions: stronger effect = higher value
Source text: Malignant glioblastomas (WHO grade IV), including primary and secondary glioblastomas, are among the most lethal with a median survival of one year, and unfortunately they are also the most prevalent type of brain tumors. By and large the standard of care of gliomas remains the use of the oral alkylating agent temozolomide and radiotherapy following surgical tumor resection. There is an urgent unmet medical need for novel therapeutics for gliomas. IDH mutations occur in up to 70% of grade II-IV secondary glioblastomas, and IDH1 R132H is the most prevalent mutation. […] Wild-type (WT) IDH1 catalyzes the conversion of isocitrate to a-ketoglutarate with the concomitant reduction of NADP+ to NADPH. In contrast, IDH1 R132H catalyzes the conversion of a-ketoglutarate to 2-hydroxyglutarate (2-HG) with the concomitant oxidation of NADPH to NADP+ [5]. Recently, a second significant advancement for the field was the finding that IDH is an oncogene, and that its metabolic product 2-HG may contribute to the pathogenesis of IDH-mutated cancers. […] Although this link to cancer is tantalizing, the direct evidence of how 2-HG drives pathogenesis of gliomas and AML remains a subject of further research. This bioassays provides profiling data on aqueous kinetic solubility (PBS @ pH7.4) of the IDH probe. […]
1. […] Concentration of the supernatant was determined by LC-UV or LC-MS/MS

solubility: 54.3 µM (≈ 26.3 µg/mL)
Structure (SMILES): Cc1ccccc1C(C(=O)NC1CCCC1)N(C(=O)Cn1cnc2ccccc21)c1cccc(F)c1 (stereo unspecified)
